We go through two compounds from ChEMBL document CHEMBL1148266, “Synthesis and mitochondrial complex I inhibition of dihydroxy-cohibin A, non-THF annonaceous acetogenin analogue” (Bioorg Med Chem Lett, 2004).

The species named for this test is Bos taurus. As to the kind of experiment: Inhibition concentration was evaluated in NADH oxidase assay using bovine heart submitochondrial particles. Type of test: functional.

In general, IC50 refers to the concentration that gives 50% inhibition. Low readings indicate greater potency, high ones weaker potency.

Compound `CCCCCCCCCCCC[C@H](OCOC)[C@H](CC[C@@H](OCOC)[C@H](O)CCCCCCCCCCCCC1=C[C@H](C)OC1=O)OCOC` had an IC50 of 4100 nM.

In turn, `CCCCCCCCCCCC[C@H](O)[C@@H](O)CC[C@@H](O)[C@H](O)CCCCCCCCCCCCC1=C[C@H](C)OC1=O` [DIHYDROXY-COHIBIN A] registered a concentration for half-maximal inhibition (IC50) of 20 nM.
